# Assay results published in patent US10450549B2, “Aryloxyphenoxypropionate tolerance in turfrgass species and use of AAD1 as a selectable marker” (Dow AgroSciences, LLC, priority 2004, dated 2019).
# Columns and labels:
# [1] = system: AAD1-transformed T0 ‘Shamrock’ Kentucky bluegrass events; experiment: Haloxyfop-R-methyl postemergence on AAD1 (pDAB3878) T0 Shamrock Kentucky bluegrass, visual % injury; format: in vivo; details: for injury of event KGB51: 560 g ae/ha
# Protocol: ‘Shamrock’ Kentucky bluegrass T0 pDAB3878 events were maintained vegetatively through division of the crowns and replanting the clonal pieces into fresh growth medium. Clonally propagated plants were maintained by periodic “mowing” of vegetative tissues.
# A growth medium was prepared by mixing Promix® and sand in a 2 to 1 ratio. The medium was contained in plastic pots with a surface area of 84.6 square centimeters (cm^2). When required to maintain plant health, a fungicide, insecticide, and/or other chemical or physical treatment was applied to stock plants. The plants were maintained in a greenhouse with an approximate 14 hour photoperiod which was maintained at 24-27° C. during the day and 22-25° C. during the night. Nutrients (Peters Excel® 15-5-15 5-Ca 2-Mg and iron chelate) were applied in the irrigation solution as needed and water was added on a regular basis. Supplemental lighting was provided with overhead metal halide 1000-Watt lamps when PAR dropped below 500.
# The selected T0 plants were sprayed with haloxyfop-R-methyl (Gallant Super®, DOW AGROSCIENCES, INC.) at rates ranging from 140 to 560 g ae/ha. […] This rate would also control susceptible monocot weed species. Measured amounts were placed individually in 25 mL glass vials and dissolved in a 12 mL volume of 1.0% (v/v) Agri-Dex® Crop Oil Concentrate (COC).
# Spray solutions were applied to the plant material with an overhead Mandel™ track sprayer equipped with a 8002E nozzles calibrated to deliver 187 L/ha over an application area of 0.503 square meters (m^2) at a spray height of 18 inches (46 cm) above average plant canopy height. Control plants were sprayed in the same manner with the COC blank.
# The treated plants and control plants were placed in a greenhouse and watered by sub-irrigation to prevent wash-off of the test compounds. At various times after application, the condition of the test plants as compared with that of the untreated plants was determined visually and scored on a scale of 0 to 100 percent, where 0 corresponds to no injury or growth inhibition, and 100 corresponds to complete kill. Regenerated, non-transformed (NT) ‘Shamrock’ Kentucky bluegrass plants and/or seed-derived clonally propagated plants served as haloxyfop sensitive controls.
# [2] = system: AAD2 (v1)-transformed T1 Arabidopsis; experiment: T1 Arabidopsis response to postemergence herbicide, % visual injury 2 WAT: native AAD2 (v1) transformants; format: in vivo, Arabidopsis thaliana; details: Native AAD2 gene
# Description: Table 16. […] Response is presented in terms of % visual injury 2 WAT. […] Since each T1 is an independent transformation event, one can expect significant variation of individual T1 responses within a given rate. An arithmetic mean and standard deviation is presented for each treatment. The range in individual response is also indicated in the last column for each rate and transformation. PAT/Cry1F-transformed Arabidopsis served as an auxin-sensitive transformed control. Wildtype Arabidopsis is untransformed.
# Freshly harvested T1 seed transformed with a native [AAD1 (v2)], plant optimized [AAD1 (v3)], or native AAD2 (v1) gene was allowed to dry for 7 days at room temperature. T1 seed was sown in 26.5×51-cm germination trays (T.O. Plastics Inc., Clearwater, Minn.), each receiving a 200 mg aliquots of stratified T1 seed (˜10,000 seed) that had previously been suspended in 40 ml of 0.1% agarose solution and stored at 4° C. for 2 days to complete dormancy requirements and ensure synchronous seed germination.
# Sunshine Mix LP5 (Sun Gro Horticulture Inc., Bellevue, Wash.) was covered with fine vermiculite and subirrigated with Hoagland's solution until wet and then allowed to gravity drain. Each 40 ml aliquot of stratified seed was sown evenly onto the vermiculite with a pipette and covered with humidity domes (KORD Products, Bramalea, Ontario, Canada) for 4-5 days. Domes were removed 1 day prior to initial transformant selection using glufosinate postemergence spray (selecting for the co-transformed PAT gene).
# Five to six days after planting (DAP) and again 10 DAP, T1 plants (cotyledon and 2-4-1f stage, respectively) were sprayed with a 0.2% solution of Liberty herbicide (200 g ai/L glufosinate, Bayer Crop Sciences, Kansas City, Mo.) at a spray volume of 10 ml/tray (703 L/ha) using a DeVilbiss compressed air spray tip to deliver an effective rate of 280 g ai/ha glufosinate per application. Survivors (plants actively growing) were identified 5-7 days after the final spraying and transplanted individually into 3-inch pots prepared with potting media (Metro Mix 360). Transplanted plants were covered with humidity domes for 3-4 days and placed in a 22° C. growth chamber as before. Domes were subsequently removed and plants moved to the greenhouse (22+5° C., 50+30% RH, 14 hours light:10 dark, minimum 500 μE/m^2s^1 natural+supplemental light) at least 1 day prior to testing for the ability of AAD1 (v3), AAD1 (v2), or AAD2 (v1) to provide phenoxy auxin herbicide resistance.
# Random individual T1 plants selected for glufosinate resistance above were confirmed for expression of the PAT protein using a PAT ELISA kit (Part no. 7000045, Strategic Diagnostics, Inc., Newark, Del.) to non-destructively confirm fidelity of selection process (manufacturer's protocol).
# Herbicide applications were applied by track sprayer in a 187 L/ha spray volume.
Compound,"mean injury, pDAB3878 Shamrock Kentucky bluegrass events ([1]; 140 and 560 g ae/ha, 11, 14 and 20 DAA)",injury of event KGB51 ([1]; 11 DAA),injury of event KGB51 ([1]; 14 DAA) [%],injury of event KGB51 ([1]; 20 DAA) [%],% Injury Ave ([2]; 50 g ae/ha) [%],individuals with 20-40% injury ([2]; 50 g ae/ha),individuals with <20% injury ([2]; 50 g ae/ha),individuals with >40% injury ([2]; 50 g ae/ha),individuals with 20-40% injury ([2]; 200 g ae/ha),individuals with <20% injury ([2]; 200 g ae/ha),individuals with >40% injury ([2]; 200 g ae/ha),% Injury Ave ([2]; 800 g ae/ha) [%],individuals with 20-40% injury ([2]; 800 g ae/ha),individuals with <20% injury ([2]; 800 g ae/ha),individuals with >40% injury ([2]; 800 g ae/ha)
CC(Oc1ccc(Oc2ncc(C(F)(F)F)cc2Cl)cc1)C(=O)O (stereo not drawn) [haloxyfop],less than 15%,about 20%,~30,~30,,,,,,,,,,,
"O=C(O)COc1ccc(Cl)cc1Cl [2,4-D, 2,4-dichlorophenoxyacetic acid]",,,,,68.2,2,1,11,3,0,11,99.8,0,0,14
